Holding throughout (format): cell-based
Test [1] relates to Aspergillus niger (IFO9455 ATCC16401). Description: Antimicrobial activity, agar medium dilution method (MIC / growth observation). On the set-up: key to Antibacterial Effect with Specimen Concentration: A: antibacterially effective; B: bacteriostatically active; C: some growth inhibiting effective; D: non effective. How it is done: (§1) Antimicrobial activity was assayed using the method described below. Paraben was used as a positive control. Staphylococcus aureus (IFO13276 ATCC6538), Candida albicans (IFO1594 ATCC10231), Aspergillus niger (IFO9455 ATCC16401), Pseudomonas aeruginosa (IFO013275 ATCC9027), Escherichia coli (IFO3972 ATCC8739) Antibacterial effect was evaluated by using either qualitative observation of the growing strains in the presence of each specimen or measuring the minimum inhibitory concentration (MIC) of the strains. An agar medium dilution method was adopted for the evaluation using Mueller-Hinton agar media (Eiken Chemical Co., Ltd.). The experiment was performed using the MIC test method following the standards of the Japanese Society of Chemotherapy. More specifically, each specimen was measured, when dissolved in 50/50 ethanol/water mixture and used to prepare 1 mL of each test specimen. 9 mL of measuring medium was added to the test specimens to create an agar plate. […] of the experimental bacterial liquid (live bacteria: 10^6-10^8/mL) was added to the agar plate. The growth and development of the bacteria was judged and recorded after it was cultured for 24 hours at 37° C. The minimum concentration that inhibited bacterial growth was regarded as MIC. The evaluation results of Example 1 are shown in Table 1 (MIC Rate) and Table 2 (Antibacterial Effect with Specimen Concentration). The MIC rates in Table 1 are given in μg/ml. […] The meaning of the symbols used in Table 2 is as follows: A: antibacterially effective, B: bacteriostatically active, C: some growth inhibiting effective, D: non effective.

Test [2] deals with Candida albicans (IFO1594 ATCC10231). Described as above. On the set-up: key to Antibacterial Effect with Specimen Concentration: A: antibacterially effective; B: bacteriostatically active; C: some growth inhibiting effective; D: non effective. The procedure: as §1
For test [3], the system named is Staphylococcus aureus (IFO13276 ATCC6538). The description is as above. Set-up: key to Antibacterial Effect with Specimen Concentration: A: antibacterially effective; B: bacteriostatically active; C: some growth inhibiting effective; D: non effective. How it is done:
as §1

The test system of test [4] is Escherichia coli (IFO3972 ATCC8739). Description: Antimicrobial activity, agar medium dilution method (MIC). Conditions: Mueller-Hinton agar, 24 hours at 37° C. How it is done: (§2) Antimicrobial activity was assayed using the method described below. Paraben was used as a positive control. Staphylococcus aureus (IFO13276 ATCC6538), Candida albicans (IFO1594 ATCC10231), Aspergillus niger (IFO9455 ATCC16401), Pseudomonas aeruginosa (IFO013275 ATCC9027), Escherichia coli (IFO3972 ATCC8739) Antibacterial effect was evaluated by using either qualitative observation of the growing strains in the presence of each specimen or measuring the minimum inhibitory concentration (MIC) of the strains. An agar medium dilution method was adopted for the evaluation using Mueller-Hinton agar media (Eiken Chemical Co., Ltd.). The experiment was performed using the MIC test method following the standards of the Japanese Society of Chemotherapy. More specifically, each specimen was measured, when dissolved in 50/50 ethanol/water mixture and used to prepare 1 mL of each test specimen. 9 mL of measuring medium was added to the test specimens to create an agar plate. […] of the experimental bacterial liquid (live bacteria: 10^6-10^8/mL) was added to the agar plate. The growth and development of the bacteria was judged and recorded after it was cultured for 24 hours at 37° C. The minimum concentration that inhibited bacterial growth was regarded as MIC. The evaluation results of Example 1 are shown in Table 1 (MIC Rate) and Table 2 (Antibacterial Effect with Specimen Concentration). […]

The test system of test [5] is Pseudomonas aeruginosa (IFO013275 ATCC9027). The description is as above. Conditions: Mueller-Hinton agar, 24 hours at 37° C. The procedure: as §2
Where [6] appears, read: specimen concentration 50 μg/ml.
[7] abbreviates: specimen concentration 500 μg/ml.
[8] abbreviates: Mueller-Hinton agar, 24 hours at 37° C.

SMILES strings stand for the structures. Values after ≈ are worked out from the molar mass of the structure shown.

For the molecule `COC1=C(OC)C(=O)C(C2COc3c(ccc(O)c3OC)C2)=CC1=O` (single isomer, unassigned) [Amorphaquinone, amorphaquinone], the “Antibacterial Effect with Specimen Concentration” value (“Antibacterial Effect” for short) is reported as “C” in test [1] (setting [6]); “A” in test [1] (setting [7]); “B” in test [2] (setting [6]); “A” in test [2] (setting [7]); “A” in test [3] (setting [6]); “A” in test [3] (setting [7]).
On to `COC1=C(OC)C(=O)C(C2COc3cc(O)ccc3C2)=CC1=O` (centres unmarked) [Pendulone, pendulone], for which the “Antibacterial Effect” value is listed as “C” in test [1] (setting [6]); “A” in test [1] (setting [7]); “C” in test [2] (setting [6]); “A” in test [2] (setting [7]); “A” in test [3] (setting [6]); “A” in test [3] (setting [7]).
As to `O=C(O)c1ccc(O)cc1` [Paraben, reference compound], the MIC (commonly the smallest concentration in the dilution series that meets the test's criterion for growth inhibition) was 800 µg/mL (≈ 5.79 mM) in test [4]; 1000 µg/mL (≈ 7.24 mM) in test [5]; 300 µg/mL (≈ 2.17 mM) in test [1] (setting [8]); 500 µg/mL (≈ 3.62 mM) in test [2] (setting [8]); 800 µg/mL (≈ 5.79 mM) in test [3] (setting [8]).
With `COc1ccc(C2COc3cc(O)ccc3C2)c(OC)c1O` (single isomer, unassigned) [Mucronulatol, mucronulatol], the “Antibacterial Effect” value is given as “C” in test [1] (setting [6]); “A” in test [1] (setting [7]); “C” in test [2] (setting [6]); “A” in test [2] (setting [7]); “A” in test [3] (setting [6]); “A” in test [3] (setting [7]).
As for `COc1cc(O)c(OC)c(OC)c1C1COc2cc(O)ccc2C1` (centres unmarked), the “Antibacterial Effect” value in test [1] (setting [6]) is recorded as “C”; in test [1] (setting [7]), “A”; in test [2] (setting [6]), “C”; in test [2] (setting [7]), “C”; in test [3] (setting [6]), “D”; in test [3] (setting [7]) it was “C”.

Source of the values: patent publication US20090263509A1, “ANTIBACTERIAL AGENT AND ANTIBACTERIAL COMPOSITION” (SAKAMOTO BIO CO., LTD, priority 2004, published 2009).
